Each structure is given as a SMILES string. Marks after values point to notes of the source that are not given here.

The values that follow come from publication PMC4320118, “Micheliolide Derivative DMAMCL Inhibits Glioma Cell Growth In Vitro and In Vivo” (PLoS ONE, 2015).

The subject of data set [1] is human U251 glioma xenografts. More on the design: method as in PMID 21559510. The settings on record: human U251 glioma xenografts ref 12; cited from earlier work. Background: Xenograft models place foreign cells or tissue in a host animal.
The next data set relates to rat 9L gliosarcomas. Details: method as in PMID 21559510. The settings on record: cited from earlier work.
For data set [2], the system named is primary acute myeloid leukemia (AML) cells. The conditions noted are these: cited from earlier work.
The conditions of data set [3]: cited from earlier work.
Data set [4] concerns intracerebral C6 glioma. Put plainly: Survival time analysis in C6 intracerebral glioma rats. The class given is in vivo, Wistar rats. The settings on record: VCR, treated daily for 21 days. As to the method:
C6 tumors were maintained as subcutaneous tumors in rats.
The survival time analyses were performed in C6 intracerebral glioma rats. […] Animals were monitored daily for signs of mortality and weight. Rats were sacrificed when a loss of mobility, lethargy, hemorrhaging around the eyes, or a hunched posture was observed as previously described. The observation time was terminated when all the vehicle rats died. Then the other rats were euthanized by CO2 asphyxiation.

Data set [5] concerns intracerebral C6 glioma. As to the method:
Adult Wistar rats (120–180 g, age 4–8 weeks) were obtained from the Animal Center at the Academy of Military Medical Sciences and had animal certification of SCXK (army) 2012–001. Animals were housed in collective cages at a temperature of 23 ± 2°C and relative humidity of 40% to 70%. All rats had free access to food and water.
Intracerebral tumor implantations were performed according to the following procedures. C6 tumors were maintained as subcutaneous tumors in rats. Subcutaneous masses were excised, dissociated, and mixed with matrigel on ice (BD Biosciences) at a ratio of 1:1. After removing of the hair on the skull, a small midline incision in the scalp was gently made under anesthesia with 2% sodium pentobarbital at a dose of 40mg/kg. C6 cells in matrigel (0.1 mL of the cell/matrigel mixture containing 10^8 cells /mL) were carefully injected into the right frontal cortex by a special 16-gauge stainless steel needle with 5 mm needle tubing. Implantation coordinates were determined from Swanson’s Stereotaxic Atlas guidelines (1992): 1.0 mm anterior and 3.0 mm lateral to bregma, at a depth of 5.0 mm from the brain surface. […] The syringe was slowly retracted, the hole was sealed with bone wax, and the incision was sutured under aseptic conditions. […] Then 0.015 mg/kg buprenorphine (s.c.) was administered to relieve the pain. The rats were replaced in cages and allowed to recover from anesthesia.
Rats were divided into the following 5 treatment groups 24 h after surgery (n = 9 rats /group) according to rat weight: 1) vehicle (normal saline: NS); 2) vincristine (VCR) at 100μg/kg; 3) DMAMCL at 25 mg/kg; 4) DMAMCL at 50 mg/kg; and 5) DMAMCL at 100 mg/kg. All drugs were prepared in NS and administered once daily for 21 days. DMAMCL was administered orally, and VCR was injected into the caudal vein. Rats were weighed and monitored for signs of mortality daily. Twenty one days into the treatment, rats were euthanized via CO2 asphyxiation under deep anesthesia by sodium pentobarbital. Brains and tumors were separated from the cerebellum and medulla oblongata, and weighed, photographed, fixed in formalin, and embedded in paraffin for sectioning. The tumor: brain weight ratio was assessed to observe the degree of tumor cell growth in brain. Serial sections (5 μm in thickness) were stained by hematoxylin and eosin (HE).

Another data set has as its system rat 9L gliosarcoma. More on the design: method as in PMID 21727209. The conditions noted are these: direct injection into the brain using biodegradable beads, increased from 12.5 days ref 26; cited from earlier work.
[6] abbreviates: VCR 100μg/kg caudal vein once daily for 21 days.

On to `C=CCc1ccc(O)c(-c2ccc(O)c(CC=C)c2)c1` [Honokiol], for which the “Reduction of tumor volume” value is listed as 50.21% in data set [1] and 52.77% in the data set on rat 9L gliosarcomas (rat 9L gliosarcomas ref 12). The “Increase of survival compared to controls” value with rat 9L gliosarcomas was 5 days.

Turning to `C=C1C(=O)O[C@H]2[C@H]1CCC(C)=C1CC[C@@](C)(O)[C@@H]12` [MCL, micheliolide], the “Number of colony-forming units of primary AML cells” value in data set [2] was “greatly reduced the number of colony-forming units”. Besides, the “Stability compared with PTL” value in data set [3] is given as “more stable than PTL”.

Consider `C=C1C(=O)O[C@H]2[C@H]1CC/C(C)=C/CC[C@@]1(C)O[C@@H]21` [PTL, Parthenolide], for which, in data set [3] (acidic and basic conditions ref 15), the Stability result is “unstable under both acidic and basic conditions”.

As to `CC[C@]1(O)C[C@H]2CN(CCc3c([nH]c4ccccc34)[C@@](C(=O)OC)(c3cc4c(cc3OC)N(C=O)[C@H]3[C@@](O)(C(=O)OC)[C@H](OC(C)=O)[C@]5(CC)C=CCN6CC[C@]43[C@@H]65)C2)C1` [VCR, vincristine, reference compound], in the data set with intracerebral C6 glioma [4], the “Median survival of deceased animals” value is 24 days, the “Time of death End” value is 57 days and the “Time of death Start” value is 23 days. Besides, the “Survival (# of rats) End” value with intracerebral C6 glioma [4] (63 days, n = 10) is reported as 7 # of rats. In the data set with intracerebral C6 glioma [4] (at 63 days), the Survival is recorded as 70 ^*** %. In the data set with intracerebral C6 glioma [4] (observation 63 days), this compound gave a Mean survival of 54.5 ± 16.4 days and a Median survival of 63 days. Also, the “Deaths during the 21-day study” value in the data set on intracerebral C6 glioma [5] (VCR 100μg/kg caudal vein once daily) is “One rat died on day 18”. For the same compound, in the data set with intracerebral C6 glioma [5] (setting [6]), the “Inhibition (percent decrease in tumor weight compared to the vehicle group)” value is recorded as 81.6%, the Tumor weight is recorded as 0.13 ± 0.07 g and the Tumor/brain was found to be 6.5 ± 2.6 %. Besides, the “Histopathology of brain tissue (HE)” value in the data set with intracerebral C6 glioma [5] (VCR 100μg/kg, 21 days) is “appeared similar to normal brain tissues”.

As for `CO[C@H]1C[C@@H]2CC[C@@H](C)[C@@](O)(O2)C(=O)C(=O)N2CCCC[C@H]2C(=O)O[C@H]([C@H](C)C[C@@H]2CC[C@@H](O)[C@H](OC)C2)CC(=O)[C@H](C)/C=C(\C)[C@@H](O)[C@@H](OC)C(=O)[C@H](C)C[C@H](C)/C=C/C=C/C=C/1C` [rapamycin, Rapamycin], the Survival in the data set on rat 9L gliosarcoma was 29 days.
